# Assay results as given in patent publication US6984649B1, “Pyridine derivatives” (Bayer Aktiengesellschaft, priority 2000, dated 2006).
# Counter-ions that a name gives are not always drawn.
# System: A549 human lung epithelium cell line
# Assay: RANTES production in response to TNF-α from A549 cells
# Type: cell-based
# Conditions: Homo sapiens, A549, A549 cells, 100 ng/ml TNF-α, read-out: Cellular activity grade (A549) (Cellular IC50)
# Method: [The Measurement of RANTES Production in Response to TNF-α from A549 Cells]
# (1) Preparation of A549 Cells
# • The A549 human lung epithelium cell line (ATCC […]) was maintained in Dulbecco's modified Eagle's medium (D-MEM, Nikken Biomedical Institute) supplemented with 10% FCS (Gibco), 100 U/ml penicillin, 100 μg/ml streptomycin, and 2 mM glutamine (culture medium). Forty thousand (4×10^4) cells (80 μl/well) were seeded in each well of 96 well flat-bottom tissue culture plate (Falcon #3072). The plate was allowed to stand for 2 hrs, thus the cells were adhered to the bottom of each well. To the each well was added 10 μl vehicle (1% DMSO), serial dilutions of test compounds in 1% DMSO, or 5 nM Dexamethasone in 1% DMSO as a reference. The mixture (90 μl/well) was incubated for 1 hr at 37° C. After 1 hr, 1 μg/ml TNF-α (10 μl) in culture medium was added to the mixture to obtain 100 μl of reaction mixture. The reaction mixture was cultured for 24 hrs to stimulate the cells with 100 ng/ml TNF-α. Cells with vehicle without TNF-α stimulation were also prepared. (2) Measurement of RANTES Production • Then the concentration of RANTES released from the cells in the supernatants of each well was determined using a quantitative sandwich enzyme immunoassay technique. First, 2 μg/ml mouse anti-huRANTES mAb (R&D Systems, #mAb678) in PBS buffer (pH 7.4, 100 μl) was put in each well of 96-well NUNC fluoro plate (Nalge Nunc, New York USA) (Final 200 ng/well) and the plate was allowed to stand for overnight at 4° C. to be coated by the antibody. Each well of the plate was then washed with 350 μl wash buffer (0.05% Tween-20, 0.85% NaCl, and 25 mM Tris/HCl pH7.4) for three times. Blocking buffer containing 1% BSA (Sigma 99% pure, 100 g), 5% sucrose (Nacalai tesque, 99% pure, 500 g), and 0.02% azide (Nacalai tesque, 100%, 500 g) were added (200 μl) to each well and then the plate was allowed to stand for 4 hours to stabilize the coated antibody. Next, 50 μl supernatants of cell culture prepared in (1) above were put in each well of the 96-well NUNC fluoro plate with coated antibody. Recombinant Human RANTES (Pepro Tech, Inc. #300-06) was used as the standard for the determination of RANTES production (linear range between 1 and 10 ng/ml). Eu-labelled mouse anti-huRANES mAb (60 ng/ml: R&D Systems, #mAb278) in PBS supplemented by 1% BSA and 0.05% Tween 20 was added (50 μl) to each well. The reaction mixtures were incubated at room temperature for 4 hrs. After washing with wash buffer (0.05% Tween-20, 0.85% NaCl, and 25 mM Tris/HCl pH7.4, 350 μl/well) for 5 times with the use of a Sera Washer (Bio-Tech, #MW-96R), the enhancement solution (DELFIA, #1244-405, 100 μl/well) was added to each well. The plate was incubated for 10 minutes at room temperature with moderate shaking. Fluorescent intensity was measured using a DELFIA fluorimeter (Wallac). Excitation was performed at 340 nm and emission was measured at 615 nm. [The Measurement of TNF-α Production in Response to LPS from Peripheral Blood Mononuclear Cells (PBMC)] (1) Preparation of PBMC • Human PBMC were prepared by first obtaining blood from healthy donors and isolating the cells from the blood. The isolation was done by Ficoll gradient-centrifugation method using Ficoll Pacque (Pharmacia #17-1440-02). Within three hours from donation, the isolated PBMC was used. After three times washing with PBS, PBMC were resuspended with RPMI 1640 (Nikken BioMedical Institute) supplemented with 10% FCS (Gibco), 100 U/ml penicillin, 100 μg/ml streptomycin, and 2 mM glutamine (culture medium). The cells (1×10^5 in 150 μL/well) were seeded in each well of 96 well flat-bottom tissue culture plate (Falcon #3072). To the each well was added 20 μl vehicle (1% DMSO), serial dilutions of test compounds in 1% DMSO, or 250 nM Dexamethasone in 1% DMSO as a reference. The mixture (170 μl/well) was incubated for 1 hr at 37° C. After 1 hr, 20 ng/ml LPS (30 μl) in culture medium was added to the mixture to obtain 200 μl of reaction mixture. […]
row,IC50 [nM],Structure (SMILES)
1,> 10000,"N#Cc1c(C2CCCN(Cc3ccccc3)C2)cc(-c2c(O)cccc2OCC2CC2)nc1N (stereo not shown) [Example 3-2, 2-amino-4-(1-benzyl-3-piperidinyl)-6-[2-(cyclopropylmethoxy)-6-hydroxyphenyl]nicotinonitrile]"
2,1000 to 10000,"Nc1nc(-c2ccccc2O)cc(C2CCCNC2)c1C(=O)O (stereo not shown) [Example 9-2, 2-amino-6-(2-hydroxyphenyl)-4-(3-piperidinyl)nicotinic acid hydrochloride]"
3,< 1000,"O=C1NCc2c(C3CCCNC3)cc(-c3c(O)cccc3OCC3CC3)nc2N1 (stereo not shown) [Example 22-2, 7-[2-(cyclopropylmethoxy)-6-hydroxyphenyl]-5-(3-piperidinyl)-3,4-dihydro-1H-pyrido[2,3-d]-pyrimidin-2-one hydrochloride]"
4,1000 to 10000,"CS(=O)(=O)NC(=O)c1cc2c(C3CCCNC3)cc(-c3c(O)cccc3OCC3CC3)nc2[nH]c1=O (stereo not shown) [Example 31-2, N-{[7-[2-(cyclopropylmethoxy)-6-hydroxyphenyl]-2-oxo-5-(3-piperidinyl)-1,2-dihydro-1,8-naphthyridin-3-yl]carbonyl}methanesulfonamide hydrochloride]"
5,< 1000,"Nc1nc(-c2ccccc2O)cc(C2CCCNC2)c1CO (stereo not shown) [Example 11-1, 2-[6-amino-5-(hydroxymethyl)-4-(3-piperidinyl)-2-pyridinyl]phenol hydrochloride]"
6,1000 to 10000,"Nc1nc(-c2ccccc2O)cc(C2CCCNC2)c1C(O)c1ccccc1 (stereo not shown) [Example 15-2, 2-[6-amino-5-[hydroxy(phenyl)methyl]-4-(3-piperidinyl)-2-pyridinyl]phenol hydrochloride]"
7,> 10000,"CNc1nc(-c2ccccc2O)cc(C2CCCNC2)c1C#N (stereo not shown) [Example 4-3, 6-(2-hydroxyphenyl)-2-(methylamino)-4-(3-piperidinyl)nicotinonitrile hydrochloride]"
8,< 1000,"N#Cc1c(NC2CCCNC2)cc(-c2ccccc2O)nc1N (stereo not shown) [Example 34-4, 2-amino-6-(2-hydroxyphenyl)-4-(3-piperidinylamino)nicotinonitrile hydrochloride]"
9,1000 to 10000,"CNC1CCCC(c2cc(-c3ccccc3O)nc(N)c2C#N)C1 (stereo not shown) [Example 1-5, 2-amino-6-(2-hydroxyphenyl)-4-[3-methylamino]cyclohexyl]nicotinonitrile hydrochloride]"
10,< 1000,"Nc1nc(-c2c(O)cccc2OCC2CC2)cc(C2CCCNC2)c1CO (stereo not shown) [Example 12-1, 2-[6-amino-5-(hydroxymethyl)-4-(3-piperidinyl)-2-pyridinyl]-3-(cyclopropylmethoxy)phenol hydrochloride]"
11,< 1000,"Oc1cccc(OCC2CC2)c1-c1cc(C2CCCNC2)c2c(n1)NCCC2 (stereo not shown) [Example 28-01, 3-(cyclopropylmethoxy)-2-[4-(3-piperidinyl)-5,6,7,8-tetrahydro-1,8-naphthyridin-2-yl]phenol]"
12,< 1000,"Nc1nc(-c2c(O)cccc2OCC2CC2)cc(C2CCNCC2)c1CON1C(=O)CCC1=O [Example 21-4, 1-{[2-amino-6-[2-(cyclopropylmethoxy)-6-hydroxyphenyl]-4-(4-piperidinyl)-3-pyridinyl]methoxy}-2,5-pyrrolidinedione hydrochloride]"
13,< 1000,"Nc1nc(-c2c(O)cccc2OCC2CC2)cc(C2CCCNC2)c1CNC(=O)NC1CCCCC1 (stereo not shown) [Example 23-3, N-{[2-amino-6-[2-(cyclopropylmethoxy)-6-hydroxyphenyl]-4-(3-piperidinyl)-3-pyridinyl]methyl}-N′-cyclohexylurea hydrochloride]"
14,1000 to 10000,"CNC(=O)c1c(C2CCCNC2)cc(-c2ccccc2O)nc1N (stereo not shown) [Example 8-2, 2-amino-6-(2-hydroxyphenyl)-N-methyl-4-(3-piperidinyl)nicotinamide hydrochloride]"
15,< 1000,"N#Cc1c(C2CCCNC2)cc(-c2c(O)cccc2O)nc1N (stereo not shown) [Example 2-1, 2-amino-6-(2,6-dihydroxyphenyl)-4-(3-piperidinyl)nicotinonitrile hydrochloride]"
16,< 1000,"N#Cc1c(C2CCNCC2)cc(-c2c(O)cccc2OCC2CC2)nc1N [Example 2-3, hydrochloride]"
17,1000 to 10000,"CC(C)(C)OC(=O)c1c(C2CCCNC2)cc(-c2ccccc2O)nc1N (stereo not shown) [Example 9-1, tert-butyl 2-amino-6-(2-hydroxyphenyl)-4-(3-piperidinyl)nicotinate hydrochloride]"
18,1000 to 10000,"O=C1NCc2c(C3CCCNC3)cc(-c3ccccc3O)nc2N1 (stereo not shown) [Example 22-1, 7-(2-hydroxyphenyl)-5-(3-piperidinyl)-3,4-dihydropyrido[2,3-d]pyrimidin-2(1H)-one hydrochloride]"
19,1000 to 10000,"Nc1ncnc2nc(-c3c(O)cccc3OCC3CC3)cc(C3CCCNC3)c12 (stereo not shown) [Example 32-1, 2-[4-amino-5-(3-piperidinyl)pyrido[2,3-d]pyrimidin-7-yl]-3-(cyclopropylmethoxy)phenol hydrochloride]"
20,< 1000,"Nc1nc(-c2ccccc2O)cc(C2=CCCNC2)c1CO [Example 11-4, 2-[6′-amino-5′-(hydroxymethyl)-1,2,5,6-tetrahydro-3,4′-bipyridin-2′-yl]phenol hydrochloride]"
21,> 10000,"N#Cc1c(C2CCCNC2)cc(-c2c(O)cccc2NCc2ccccc2)nc1N (stereo not shown) [Example 1-11, 2-amino-6-[2-(benzylamino)-6-hydroxyphenyl]-4-(3-piperidinyl)nicotinonitrile hydrochloride]"
22,1000 to 10000,"Nc1n[nH]c2nc(-c3ccccc3O)cc(C3CCCNC3)c12 (stereo not shown) [Example 5-1, 2-[3-amino-4-(3-piperidinyl)-1H-pyrazolo[3,4-b]pyridin-6-yl]phenol hydrochloride]"
23,< 1000,"CNC(=O)c1c(C2CCCNC2)cc(-c2c(O)cccc2OCC2CC2)nc1N (stereo not shown) [Example 8-3, 2-amino-6-[2-(cyclopropylmethoxy)-6-hydroxyphenyl]-N-methyl-4-(3-piperidinyl)nicotinamide hydrochloride]"
24,< 1000,"Nc1nc(-c2c(O)cccc2OCC2CC2)cc(C2CCNCC2)c1COc1ccccc1 [Example 21-3, 2-[6-amino-5-(phenoxymethyl)-4-(4-piperidinyl)-2-pyridinyl]-3-(cyclopropylmethoxy)phenol hydrochloride]"
25,< 1000,"CC(=O)c1c(C2CCCNC2)cc(-c2ccccc2O)nc1N (stereo not shown) [Example 15-3, 1-[2-amino-6-(2-hydroxyphenyl)4-(3-piperidinyl)-3-pyridinyl]ethanone hydrochloride]"
26,< 1000,"N#Cc1c(C2=CCCNC2)cc(-c2ccccc2O)nc1N [Example 1-9, 2′-amino-6′-(2-hydroxyphenyl)-1,2,5,6-tetrahydro-3,4′-bipyridine-3′-carbonitrile hydrochloride]"
27,< 1000,"N#Cc1c(C2CCCNC2)cc(-c2sccc2O)nc1N (stereo not shown) [Example 1-7, 2-amino-6-(3-hydroxy-2-thienyl)-4-(3-piperidinyl)nicotinonitrile hydrobromide]"
28,< 1000,"CCOC(=O)NCc1c(C2CCCNC2)cc(-c2c(O)cccc2OCC2CC2)nc1N (stereo not shown) [Example 23-2, ethyl [2-amino-6-[2-(cyclopropylmethoxy)-6-hydroxyphenyl]-4-(3-piperidinyl)-3-pyridinyl]methylcarbamate hydrochloride]"
